Common to all, as to type: cell-based
The nature of series [1]: Cell viability assay (CCK-8). The following applies: human; HEK293 cells, CCK-8, compound at 100 μM, 48 h incubation; read-out: Cell Viability (%) (N = 3). The protocol:
(§1) The viability of HEK293 cells was determined by a CCK-8 assay according to the established protocol. Briefly, 5 × 10^3 cells/well HEK293 cells were cultured in 96-well plates at 37 °C under an atmosphere of 5% CO2 for 24 h and then treated with the tested compounds. After 48 h of incubation, CCK-8 reagent (20 μL) was added into each well and continuously incubated for 2 h at 37 °C. Absorbance at a wavelength of 450 nm was measured by a microplate reader, which was further used to calculate the cell viability. All the experiments were performed in triplicate.

The subject of the next series is NF-κB pathway. Description: NF-κB inhibitory (immunosuppressive) activity, luciferase reporter assay in LPS-induced HEK293/NF-κB-Luc cells. The following applies: for inhibition at 100 µM / IC50: Homo sapiens; for inhibition at 100 µM: HEK293, 24 h, read-out: NF-κB Inhibitory Rates (%) (N = 3); for IC50: read-out: IC50 NF-κB inhibition. The protocol:
The NF-κB inhibitory activities were measured using the HEK293/NF-κB-Luc cells, which were generated as described previously. Briefly, HEK293 cells were co-transfected with a luciferase reporter plasmid, which contained an NF-κB binding site and pcDNA3.1, using Lipofectamine 2000 at a concentration of 10:1. The HEK293/ NF-κB-Luc cells were plated in 48-well plates and cultured in DMEM supplemented with 10% fetal bovine serum (FBS) for 16 h. Then, the cells were treated with the tested compounds, followed by stimulation with 1 μg/mL of LPS for 24 h. The cells were rinsed twice with phosphate-buffered saline (PBS, pH 7.4) and lysed with passive lysis buffer. Then, the inhibitory effects on NF-κB were analyzed using the luciferase assay system according to the manufacturer’s instructions. All the experiments were performed in triplicate.
A general note: In a reporter assay the amount or activity of a reporter protein is the signal.

A further series has as its system HEK293 cells. Description: Cell viability assay (CCK-8). The settings on record: for influence on the cell viability: CCK-8, at a concentration of 100 μM. The protocol: as §1
Where [2] appears, read: HEK293/NF-κB-Luc cells induced by LPS (1 μg/mL, 24 h), compound at 100 μM.
Where [3] appears, read: HEK293/NF-κB-Luc cells induced by LPS.

“Also recorded” adds a separate entry of the source.

A word on the viability: it is a read-out of living cells in per cent, often relative to untreated cells. For `CC(=O)OCC12[C@H](OC(C)=O)C(=O)[C@@H]3[C@@H](OC(C)=O)[C@@]14O[C@@]3(C)COC(=O)c1cccnc1CCC(C)(OC(=O)c1ccccc1)C(=O)O[C@@H]([C@H](OC(C)=O)[C@@H]2OC(C)=O)[C@]4(C)O` (stereo partly drawn) [Compound 10, 1β,2β,5α,8β,11-pentaacetoxy-4α-droxy-7-oxo-3α,15-[2′-methyl-2′-(3-benzoyloxy)-4′-(3′′-carboxy-2′′-pyridyl)butanoic acid] dicarbolactone dihydro-β-agarofuran], the viability at 48 h, 100 µM in series [1] was found to be 102.8 ± 0.89%. The inhibition at 100 µM with NF-κB pathway (setting [2]) was found to be 21.7 ± 4.42%.

Consider `CC(=O)OCC12[C@H](OC(C)=O)[C@H](OC(C)=O)[C@@H]3[C@@H](OC(C)=O)[C@@]14O[C@@]3(C)COC(=O)c1cccnc1CCC(C)C(=O)O[C@@H]([C@H](O)[C@@H]2OC(C)=O)[C@]4(C)O` (stereo partly drawn) [Compound 12, wilforjine], for which the viability at 48 h, 100 µM in series [1] came out at 93.5 ± 2.76%. Further, the inhibition at 100 µM in the series with NF-κB pathway (setting [2]) was determined as 23 ± 3.43%.

As a reminder, the IC50 is the concentration that inhibits the measured activity by half. On to `CC(=O)OCC12[C@H](OC(C)=O)[C@H](OC(C)=O)[C@@H]3[C@@H](O)[C@@]14O[C@@]3(C)COC(=O)c1cccnc1CCC(C)(O)C(=O)O[C@@H]([C@H](OC(=O)c1ccccc1)[C@@H]2OC(C)=O)[C@]4(C)O` (stereo partly drawn) [Compound 5, 2β-benzoyloxy-1β,7β,8β,11-tetraacetoxy-4α,5α-dihydroxy-3α,15-[2′-methyl-2′-hydroxy-4′-(3′′-carboxy-2′′-pyridyl)butanoic acid] dicarbolactone dihydro-β-agarofuran], for which the viability at 48 h, 100 µM in series [1] came to 93.8 ± 2.2%. Moreover, the “influence on the cell viability” value with HEK293 cells is “no influence on the cell viability; also recorded: no effects on the cell viability”. Further, the inhibition at 100 µM in the series on NF-κB pathway (setting [2]) was more than 50%. Besides, in the series on NF-κB pathway (setting [3]), the IC50 was determined as 8.75 µM.

On to `CC(=O)OCC12[C@H](OC(C)=O)[C@H](OC(C)=O)[C@@H]3[C@@H](O)[C@@]14O[C@@]3(C)COC(=O)c1cccnc1CCC(C)(O)C(=O)O[C@@H]([C@H](OC(=O)c1ccoc1)[C@@H]2OC(C)=O)[C@]4(C)O` (stereo partly drawn) [Compound 4, 2β-furanoyloxy-1β,7β,8β,11-tetraacetoxy-4α,5α-dihydroxy-3α,15-[2′-methyl-2′-hydroxy-4′-(3′′-carboxy-2′′ -pyridyl)butanoic acid] dicarbolactone dihydro-β-agarofuran], for which, in series [1], the viability at 48 h, 100 µM amounted to 101 ± 3.58%. For the same compound, in the series with NF-κB pathway (setting [2]), the inhibition at 100 µM was found to be 7.27 ± 2.28%.

Turning to `CC(=O)OC[C@]12[C@H](OC(C)=O)[C@H](OC(C)=O)[C@@H]3[C@@H](OC(C)=O)[C@@]14O[C@@]3(C)COC(=O)c1cccnc1CCC(C)C(=O)O[C@@H]([C@H](OC(=O)c1ccccc1)[C@@H]2OC(C)=O)[C@]4(C)O` (stereo partly drawn) [Compound 16, wilforine], the viability at 48 h, 100 µM in series [1] amounted to 103 ± 2.21%. Also, in the series with HEK293 cells, the “influence on the cell viability” value is listed as “no influence on the cell viability; also recorded: no effects on the cell viability”. The inhibition at 100 µM with NF-κB pathway (setting [2]) is more than 50%. The IC50 in the series on NF-κB pathway (setting [3]) was found to be 15.7 µM.

`CC(=O)OCC12[C@H](OC(C)=O)C(=O)[C@@H]3[C@@H](OC(C)=O)[C@@]14O[C@@]3(C)COC(=O)c1cccnc1CCC(C)C(=O)O[C@@H]([C@H](OC(C)=O)[C@@H]2OC(C)=O)[C@]4(C)O` (stereo partly drawn) [Compound 13, evonimine]: the viability at 48 h, 100 µM in series [1] was determined as 100 ± 6.4%. In addition, the inhibition at 100 µM with NF-κB pathway (setting [2]) turned out to be 26.5 ± 5.99%.

For wilfortrine [Compound 14], the “Cell Viability (%) (N = 3)” value in the series on HEK293 cells (HEK293 cells, CCK-8, compound at 100 μM, 48 h incubation) turned out to be 93.76 ± 1.82%. Also, the “NF-κB Inhibitory Rates (%) (N = 3)” value with NF-κB pathway (setting [2]) is 40.20 ± 3.92%.

On to `CC(=O)OCC12[C@H](OC(C)=O)[C@H](OC(C)=O)[C@@H]3[C@@H](OC(C)=O)[C@@]14O[C@@]3(C)COC(=O)c1cccnc1CCC(C)(OC(=O)c1ccccc1)C(=O)O[C@@H]([C@H](OC(C)=O)[C@@H]2OC(C)=O)[C@]4(C)O` (stereo partly drawn) [Compound 15, wilfornine A], for which the viability at 48 h, 100 µM in series [1] was 110 ± 5.83%. Besides, the inhibition at 100 µM in the series on NF-κB pathway (setting [2]) stood at 8.73 ± 2.07%.

For `CC(=O)OCC12C(OC(C)=O)C(=O)C3C(OC(C)=O)C14OC3(C)COC(=O)c1cccnc1CCC(C)(OC(=O)c1ccoc1)C(=O)OC(C(OC(C)=O)C2OC(C)=O)C4(C)O` (stereo not drawn) [Compound 9, 1β,2β,5α,8β,11-pentaacetoxy-4α-droxy-7-oxo-3α,15-[2′-methyl-2′-(3-furoyloxy)-4′-(3′′-carboxy-2′′-pyridyl)butanoic acid] dicarbolactone dihydro-β-agarofuran], the viability at 48 h, 100 µM in series [1] came out at 99.5 ± 5.71%. Moreover, the inhibition at 100 µM in the series on NF-κB pathway (setting [2]) is 37.4 ± 1.99%.

Regarding `Cc1ccc(NCCCc2ccccc2)c(N)c1` [JSH23, reference compound], the “NF-κB Inhibitory Rates (%) (N = 3)” value in the series with NF-κB pathway (positive control, HEK293/NF-κB-Luc cells induced by LPS, concentration not given) came to 74.56 ± 1.83%.

For `CC(=O)OC[C@]12[C@H](OC(C)=O)[C@H](OC(C)=O)[C@@H]3[C@@H](OC(C)=O)[C@@]14O[C@@]3(C)COC(=O)c1cccnc1CCC(C)(O)C(=O)O[C@@H]([C@H](O)[C@@H]2OC(C)=O)[C@@]4(C)O` (stereo partly drawn) [Compound 11, tripfordine A], in series [1], the viability at 48 h, 100 µM was 102 ± 3.66%. For the same compound, the “influence on the cell viability” value in the series with HEK293 cells is recorded as “no influence on the cell viability; also recorded: no effects on the cell viability”. The inhibition at 100 µM with NF-κB pathway (setting [2]) is more than 50%. In addition, the IC50 in the series with NF-κB pathway (setting [3]) was 0.74 µM.

For the origin of these results see article PMC9654820, “Immunosuppressive Sesquiterpene Pyridine Alkaloids from Tripterygium wilfordii Hook. f” (Molecules, 2022).
